Measurements from PubChem BioAssay AID330 (DTP/NCI, 2004).
Several values for one entry are separate records, joined by “and”; a condition that tells them apart may be missing. Equal entries are not always repeated. Toxic doses and inconclusive results are not listed.

Test system: P388 leukemia ip, CD2F1 mice, survival T/C
Experiment: NCI In Vivo Anticancer Drug Screen. Data for tumor model P388 Leukemia (intraperitoneal) in CD2F1 (CDF1) mice
Conditions: endpoint: median survival time, higher = longer survival
Method in brief: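 Mice carrying the transplanted tumor received test compound or vehicle. Survival was recorded in each group, and the value is the treated-group measurement divided by that of the vehicle-treated control group.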

[1] = dose: 100.0 mg/kg/injection, schedule: Q04DX003 (ip), vehicle: Klucel (hydroxypropylcellulose) (HPC)
[2] = dose: 200.0 mg/kg/injection, schedule: Q04DX003 (ip), vehicle: Klucel (hydroxypropylcellulose) (HPC)
[3] = dose: 12.5 mg/kg/injection, schedule: Q01DX005 (ip), vehicle: saline with Tween-80
[4] = dose: 25.0 mg/kg/injection, schedule: Q01DX005 (ip), vehicle: saline with Tween-80
[5] = dose: 50.0 mg/kg/injection, schedule: Q01DX005 (ip), vehicle: saline with Tween-80
[6] = dose: 60.0 mg/kg/injection, schedule: Q01DX005 (ip), vehicle: saline with Tween-80
[7] = dose: 120.0 mg/kg/injection, schedule: Q01DX005 (ip), vehicle: saline with Tween-80
[8] = dose: 240.0 mg/kg/injection, schedule: Q01DX005 (ip), vehicle: saline with Tween-80
[9] = dose: 50.0 mg/kg/injection, schedule: Q01DX005 (ip), vehicle: Klucel (hydroxypropylcellulose) (HPC)
[10] = dose: 100.0 mg/kg/injection, schedule: Q01DX005 (ip), vehicle: Klucel (hydroxypropylcellulose) (HPC)
[11] = dose: 200.0 mg/kg/injection, schedule: Q01DX005 (ip), vehicle: Klucel (hydroxypropylcellulose) (HPC)
[12] = dose: 3.12 mg/kg/injection, schedule: Q01DX005 (ip), vehicle: saline
[13] = dose: 6.25 mg/kg/injection, schedule: Q01DX005 (ip), vehicle: saline
[14] = dose: 12.5 mg/kg/injection, schedule: Q01DX005 (ip), vehicle: saline
[15] = dose: 25.0 mg/kg/injection, schedule: Q01DX009 (ip), vehicle: Klucel (hydroxypropylcellulose) (HPC)
[16] = dose: 50.0 mg/kg/injection, schedule: Q01DX009 (ip), vehicle: Klucel (hydroxypropylcellulose) (HPC)
[17] = dose: 100.0 mg/kg/injection, schedule: Q01DX009 (ip), vehicle: Klucel (hydroxypropylcellulose) (HPC)
[18] = dose: 200.0 mg/kg/injection, schedule: Q01DX009 (ip), vehicle: Klucel (hydroxypropylcellulose) (HPC)
[19] = dose: 200.0 mg/kg/injection, schedule: Q01DX009 (ip), vehicle: saline with Tween-80
[20] = dose: 6.25 mg/kg/injection, schedule: Q01DX009 (ip), vehicle: saline
[21] = dose: 12.5 mg/kg/injection, schedule: Q01DX009 (ip), vehicle: saline
[22] = dose: 50.0 mg/kg/injection, schedule: Q01DX009 (ip), vehicle: saline with Tween-80
[23] = dose: 50.0 mg/kg/injection, schedule: Q01DX009 (ip), vehicle: saline
[24] = dose: 100.0 mg/kg/injection, schedule: Q01DX009 (ip), vehicle: saline with Tween-80
[25] = dose: 100.0 mg/kg/injection, schedule: Q01DX009 (ip), vehicle: saline
[26] = dose: 25.0 mg/kg/injection, schedule: Q01DX009 (ip), vehicle: saline
[27] = dose: 100.0 mg/kg/injection, schedule: Q04DX002 (ip), vehicle: saline with Tween-80
[28] = dose: 200.0 mg/kg/injection, schedule: Q04DX002 (ip), vehicle: saline with Tween-80

CC1CC=C(C(=O)N2CCOCC2)C1 (stereo not given)
T/C (dose: 50.0 mg/kg/injection, schedule: Q04DX003 (ip), vehicle: Klucel (hydroxypropylcellulose) (HPC)): 103 % of control
T/C [1]: 105 % of control
T/C [2]: 101 % of control

O=C(NCCCCCCCNC(=O)C12CC3CC(CC(C3)C1)C2)C12CC3CC(CC(C3)C1)C2
T/C [3]: 93 % of control
T/C [4]: 89 % of control
T/C [5]: 88 % of control and 89 % of control

CN1CCOP(=O)(c2ccccc2)N1 (stereo not given)
T/C [6]: 99 % of control
T/C [7]: 100 % of control
T/C [8]: 89 % of control

COc1cc(/C=C/C=C(C(=O)O)C(=O)O)ccc1OCc1ccccc1
T/C [9]: 100 % of control
T/C [10]: 98 % of control
T/C [11]: 92 % of control

CCCC1CCCC[N+]1(C)[B-](F)(F)F (stereo not given)
T/C [12]: 100 % of control
T/C [13]: 99 % of control
T/C [14]: 103 % of control
T/C (dose: 25.0 mg/kg/injection, schedule: Q01DX005 (ip), vehicle: saline): 100 % of control and 102 % of control

CN(C)C1CS(=O)(=O)OC2=C1COCC2 (stereo not given)
T/C [6]: 101 % of control
T/C [7]: 105 % of control

O=c1[nH]c2c(c(=O)[nH]1)CCCCCC2
T/C [15]: 102 % of control and 103 % of control
T/C [16]: 99 % of control and 103 % of control
T/C [17]: 91 % of control and 97 % of control
T/C [18]: 102 % of control and 94 % of control

Cc1ccc(S(=O)(=O)OCCN(CCOS(=O)(=O)c2ccc(C)cc2)c2ccc(C=O)cc2)cc1
T/C (dose: 0.78 mg/kg/injection, schedule: Q04DX003 (ip), vehicle: saline with Tween-80): 100 % of control
T/C (dose: 1.56 mg/kg/injection, schedule: Q04DX003 (ip), vehicle: saline with Tween-80): 113 % of control
T/C (dose: 3.13 mg/kg/injection, schedule: Q04DX003 (ip), vehicle: saline with Tween-80): 100 % of control
T/C (dose: 12.5 mg/kg/injection, schedule: Q04DX003 (ip), vehicle: saline with Tween-80): 154 % of control
T/C (dose: 25.0 mg/kg/injection, schedule: Q04DX003 (ip), vehicle: saline with Tween-80): 159 % of control
T/C (dose: 66.0 mg/kg/injection, schedule: Q04DX003 (ip), vehicle: saline with Tween-80): 158 % of control
T/C (dose: 100.0 mg/kg/injection, schedule: Q04DX003 (ip), vehicle: saline with Tween-80): 170 % of control and 172 % of control and 187 % of control
T/C (dose: 150.0 mg/kg/injection, schedule: Q04DX003 (ip), vehicle: saline with Tween-80): 183 % of control
T/C [19]: 95 % of control
T/C (dose: 200.0 mg/kg/injection, schedule: Q04DX003 (ip), vehicle: saline with Tween-80): 162 % of control

CCCCCCCCCCCC(CCCCCCCCCC)CCCCCCCCCC
T/C (dose: 50.0 mg/kg/injection, schedule: Q01DX001 (ip), vehicle: saline with Tween-80): 109 % of control
T/C (dose: 100.0 mg/kg/injection, schedule: Q01DX001 (ip), vehicle: saline with Tween-80): 104 % of control
T/C (dose: 200.0 mg/kg/injection, schedule: Q01DX001 (ip), vehicle: saline with Tween-80): 100 % of control

CCOC(=O)/C(C#N)=C(/SC)N1CC1
T/C (dose: 12.5 mg/kg/injection, schedule: Q01DX009 (ip), vehicle: Klucel (hydroxypropylcellulose) (HPC)): 100 % of control
T/C [15]: 93 % of control
T/C [16]: 110 % of control and 90 % of control

COc1cc(NCCCCCCCNC(C)C)c2nccc(C)c2c1
T/C (dose: 3.13 mg/kg/injection, schedule: Q01DX009 (ip), vehicle: saline): 105 % of control
T/C [20]: 102 % of control
T/C [21]: 99 % of control

O=C(CN1CCCCC1)Nc1cccc(Cl)c1
T/C [22]: 100 % of control
T/C [23]: 103 % of control
T/C [24]: 100 % of control
T/C [25]: 107 % of control
T/C [19]: 123 % of control
T/C (dose: 200.0 mg/kg/injection, schedule: Q01DX009 (ip), vehicle: saline): 120 % of control

COc1cc(C2c3cc4c(cc3OC(N3CCCC3)C2C)OCO4)cc(OC)c1OC (stereo not given)
T/C [6]: 90 % of control
T/C [7]: 93 % of control
T/C [8]: 104 % of control

O=C(NNc1ccccc1)NN(C(=O)Nc1cccc(Cl)c1)c1ccccc1
T/C [9]: 96 % of control
T/C [10]: 104 % of control
T/C [11]: 100 % of control

COn1cc(C(=O)O)c(=O)c2c3sc(=O)n(C)c3ccc21
T/C [22]: 101 % of control
T/C [24]: 94 % of control
T/C [19]: 99 % of control

CN(C)c1ccc2nc3ccc(N)cc3[n+](-c3ccccc3)c2c1
T/C [12]: 106 % of control
T/C [13]: 106 % of control
T/C [14]: 112 % of control

COc1ccc2c(c1)c(NCCCCCC#N)cc(C)[n+]2C
T/C [3]: 100 % of control
T/C [4]: 100 % of control
T/C [5]: 105 % of control

CCN(CC)CCCCCCCNc1cc(OC)cc2c(C)ccnc12
T/C [20]: 90 % of control
T/C [21]: 93 % of control
T/C [26]: 99 % of control

O=C(O)C[n+]1ccccc1
T/C [20]: 103 % of control
T/C [21]: 101 % of control and 94 % of control
T/C [26]: 105 % of control
T/C [23]: 101 % of control
T/C [25]: 97 % of control

CCOP(=O)(OCC)c1ncn(Cc2ccccc2)c1N
T/C (dose: 100.0 mg/kg/injection, schedule: Q01DX001 (ip), vehicle: saline): 97 % of control
T/C (dose: 200.0 mg/kg/injection, schedule: Q01DX001 (ip), vehicle: saline): 104 % of control
T/C (dose: 400.0 mg/kg/injection, schedule: Q01DX001 (ip), vehicle: saline): 101 % of control

Cc1cc(C)n(C2=NC3(c4ccc(Cl)cc4)NC(=O)NC3(c3ccc(Cl)cc3)N2)n1 (stereo not given)
T/C (dose: 50.0 mg/kg/injection, schedule: Q04DX002 (ip), vehicle: saline with Tween-80): 96 % of control
T/C [27]: 97 % of control
T/C [28]: 93 % of control

O=S(=O)([O][Hg][CH2]C1Cc2ccccc2O1)[O][Hg][CH2]C1Cc2ccccc2O1 (stereo not given)
T/C (dose: 11.0 mg/kg/injection, schedule: Q01DX009 (ip), vehicle: saline with Tween-80): 118 % of control

COc1ccc2c(c1O)-c1cc(O)cc3c1C(C2)NCC3 (stereo not given)
T/C (dose: 0.32 mg/kg/injection, schedule: Q04DX003 (ip), vehicle: DMSO): 98 % of control
T/C (dose: 0.63 mg/kg/injection, schedule: Q04DX003 (ip), vehicle: DMSO): 95 % of control
T/C (dose: 1.25 mg/kg/injection, schedule: Q04DX003 (ip), vehicle: DMSO): 99 % of control
T/C (dose: 2.5 mg/kg/injection, schedule: Q04DX003 (ip), vehicle: DMSO): 98 % of control
T/C (dose: 5.0 mg/kg/injection, schedule: Q04DX003 (ip), vehicle: DMSO): 100 % of control

c1ccc(-c2ccc(-c3cn4c(n3)SCC4)cc2)cc1
T/C (dose: 200.0 mg/kg/injection, schedule: Q01DX001 (ip), vehicle: Klucel (hydroxypropylcellulose) (HPC)): 91 % of control

O=C1C(=C2C=CN(CCN3CCCCC3)C=C2)C(=O)c2ccccc21
T/C [16]: 100 % of control
T/C [17]: 100 % of control
T/C [18]: 87 % of control

Nc1ncc2[nH]cnc2n1
T/C [9]: 102 % of control
T/C [10]: 100 % of control
T/C [11]: 103 % of control

CCn1c(-c2ccccc2)nc(=S)c(C(=O)c2ccccc2)c1SC
T/C [1]: 98 % of control
T/C [2]: 100 % of control
T/C (dose: 400.0 mg/kg/injection, schedule: Q04DX003 (ip), vehicle: Klucel (hydroxypropylcellulose) (HPC)): 100 % of control

CN1C(=O)/C(=[N+](/[O-])c2ccccc2-c2ccccc2)c2ccccc21
T/C [27]: 99 % of control
T/C [28]: 100 % of control
T/C (dose: 400.0 mg/kg/injection, schedule: Q04DX002 (ip), vehicle: saline with Tween-80): 97 % of control
